Laboratory results as given in ChEMBL document CHEMBL4715703, “Engineering of a Novel Simplified Human Insulin-Like Peptide 5 Agonist” (J Med Chem, 2016).
Calls of active or inactive are those of the source. The rule behind the calls is not given here. Where a SMILES comes first, the peptide text is derived from it. Bridges are numbered along the chain shown (N, C = ends). Roman numbers before positions name the chains, in order.

Experiments:
Relaxin-3 receptor 2 [1] = molecular target: T1, Relaxin-3 receptor 2 (Homo sapiens, UniProt Q8TDU9); experiment: Displacement of europium-labeled Eu(A)-mINSL5 from human RXFP4 expressed in CHO-K1 cells; assay type: cell-based
T1 sequence (Q8TDU9 whole entry): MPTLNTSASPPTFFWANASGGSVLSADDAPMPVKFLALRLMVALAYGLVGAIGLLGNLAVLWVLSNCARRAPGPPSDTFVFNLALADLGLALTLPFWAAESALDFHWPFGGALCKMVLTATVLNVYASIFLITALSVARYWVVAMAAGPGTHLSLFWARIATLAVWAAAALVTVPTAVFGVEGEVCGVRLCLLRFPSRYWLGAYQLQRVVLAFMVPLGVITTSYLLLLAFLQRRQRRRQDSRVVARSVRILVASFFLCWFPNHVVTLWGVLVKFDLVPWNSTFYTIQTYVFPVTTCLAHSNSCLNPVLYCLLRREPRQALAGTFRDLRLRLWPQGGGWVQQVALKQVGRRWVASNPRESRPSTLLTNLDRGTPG

Relaxin-3 receptor 2 [2] = molecular target: T1, Relaxin-3 receptor 2; experiment: Agonist activity at human RXFP4 expressed in CHO-K1 cells assessed as reduction in forskolin-induced cAMP production by pCRE beta-galactosidase reporter assay; assay type: functional, cell-based
Relaxin-3 receptor 2 [3] = molecular target: T1, Relaxin-3 receptor 2; experiment: Agonist activity at human RXFP4 expressed in CHO-K1 cells assessed as induction of ERK1/2 phosphorylation incubated for 5 mins by Alpha-screen sure-fire assay; assay type: cell-based; settings: filed as agonist

| Compound | Ki (Relaxin-3 receptor 2 [1]) [nM] | EC50 (Relaxin-3 receptor 2 [2]) [nM] | Activity (Relaxin-3 receptor 2 [3]) |
| --- | --- | --- | --- |
| CC[C@H](C)[C@@H]1NC(=O)[C@H](Cc2ccc(O)cc2)NC(=O)[C@H]([C@@H](C)CC)NC(=O)[C@H](C(C)C)NC(=O)[C@H]([C@@H](C)O)NC(=O)[C@H](CCCNC(=N)N)NC(=O)[C@H]([C@@H](C)CC)NC(=O)[C@H](Cc2ccc(O)cc2)NC(=O)[C@H](CCC(=O)O)NC(=O)[C@H](CC(C)C)NC(=O)CNC(=O)[C@@H](NC(=O)[C@H](CC(C)C)NC(=O)[C@H](CCCNC(=N)N)NC(=O)[C@@H](NC(=O)[C@H](CO)NC(=O)[C@H](CCC(=O)O)NC(=O)[C@@H](N)CCCCN)C(C)C)CSSC[C@@H]2NC(=O)[C@@H](NC(=O)[C@H](CC(C)C)NC(=O)[C@@H](NC(=O)[C@H](CCC(N)=O)NC(=O)[C@H](CC(C)C)NC(=O)[C@H](CC(=O)O)NC(=O)C3CCC(=O)N3)[C@@H](C)O)CSSC[C@H](NC(=O)CNC(=O)[C@H](CCC(=O)O)NC(=O)[C@H]([C@@H](C)O)NC2=O)C(=O)N[C@@H](CO)C(=O)N[C@@H](CCSC)C(=O)N[C@@H]([C@@H](C)O)C(=O)N[C@@H](CC(=O)O)C(=O)N[C@@H](CC(C)C)C(=O)N[C@@H](CO)C(=O)N[C@@H](C)C(=O)N[C@@H](CC(C)C)C(=O)N[C@H](C(=O)O)CSSC[C@@H](C(=O)N[C@@H](C)C(=O)N[C@@H](CO)C(=O)N[C@@H](CO)C(=O)N[C@@H](CCCNC(=N)N)C(=O)N[C@@H](Cc2c[nH]c3ccccc23)C(=O)O)NC1=O (some centres not stated) | 33.1 | 4.57 | Active |
| CC[C@H](C)[C@@H]1NC(=O)[C@H](Cc2ccc(O)cc2)NC(=O)[C@H]([C@@H](C)CC)NC(=O)[C@H](C(C)C)NC(=O)[C@H]([C@@H](C)O)NC(=O)[C@H](CCCNC(=N)N)NC(=O)[C@H]([C@@H](C)CC)NC(=O)[C@H](Cc2ccc(O)cc2)NC(=O)[C@H](CCC(=O)O)NC(=O)[C@H](CC(C)C)NC(=O)CNC(=O)[C@@H](NC(=O)[C@H](CC(C)C)NC(=O)[C@H](CCCNC(=N)N)NC(=O)[C@@H](NC(=O)[C@H](CO)NC(=O)[C@H](CCC(=O)O)NC(=O)[C@@H](N)CCCCN)C(C)C)CSSC[C@H](N)C(=O)N[C@@H]([C@@H](C)O)C(=O)N[C@@H](CC(=O)O)C(=O)NCC(=O)N[C@@H](C)C(=O)N[C@@H](CO)C(=O)N[C@@H](CCSC)C(=O)N[C@@H](CCCCN)C(=O)N[C@@H](CC(=O)O)C(=O)N[C@@H](CC(C)C)C(=O)N[C@@H](CO)C(=O)N[C@@H](C)C(=O)N[C@@H](CC(C)C)C(=O)N[C@H](C(=O)O)CSSC[C@@H](C(=O)N[C@@H](C)C(=O)N[C@@H](CO)C(=O)N[C@@H](CO)C(=O)N[C@@H](CCCNC(=N)N)C(=O)N[C@@H](Cc2c[nH]c3ccccc23)C(=O)O)NC1=O (I: H-KESVRLCGLEYIRTVIYICASSRW-OH / II: H-CTDGASMKDLSALC-OH; disulfide I:7-II:1, I:19-II:14) | 29.5 | 20.9 | Active |
| I: H-KESVRLCGLEYIRTVIYICASSRW-OH / II: H-RDLQALCCREGCSMKELSTLC-OH (disulfide I:7-II:8, I:19-II:21, II:7-II:12) | 5.5 | 0.35 |  |

Now from value to compound:

| Ki (Relaxin-3 receptor 2 [1]) [nM] | EC50 (Relaxin-3 receptor 2 [2]) [nM] | Activity (Relaxin-3 receptor 2 [3]) | Compound |
| --- | --- | --- | --- |
| 145 | 100 |  | CC[C@H](C)[C@@H]1NC(=O)[C@H](Cc2ccc(O)cc2)NC(=O)[C@H]([C@@H](C)CC)NC(=O)[C@H](C(C)C)NC(=O)[C@H]([C@@H](C)O)NC(=O)[C@H](CCCNC(=N)N)NC(=O)[C@H]([C@@H](C)CC)NC(=O)[C@H](Cc2ccc(O)cc2)NC(=O)[C@H](CCC(=O)O)NC(=O)[C@H](CC(C)C)NC(=O)CNC(=O)[C@@H](NC(=O)[C@H](CC(C)C)NC(=O)[C@H](CCCNC(=N)N)NC(=O)[C@@H](NC(=O)[C@H](CO)NC(=O)[C@H](CCC(=O)O)NC(=O)[C@@H](N)CCCCN)C(C)C)CSSC[C@H](N)C(=O)N[C@@H]([C@@H](C)O)C(=O)N[C@@H](CC(=O)O)C(=O)NCC(=O)N[C@@H](C)C(=O)N[C@@H](CO)C(=O)N[C@@H](CCSC)C(=O)N[C@@H]([C@@H](C)O)C(=O)N[C@@H](CC(=O)O)C(=O)N[C@@H](CC(C)C)C(=O)N[C@@H](CO)C(=O)N[C@@H](C)C(=O)N[C@@H](CC(C)C)C(=O)N[C@H](C(=O)O)CSSC[C@@H](C(=O)N[C@@H](C)C(=O)N[C@@H](CO)C(=O)N[C@@H](CO)C(=O)N[C@@H](CCCNC(=N)N)C(=O)N[C@@H](Cc2c[nH]c3ccccc23)C(=O)O)NC1=O (I: H-KESVRLCGLEYIRTVIYICASSRW-OH / II: H-CTDGASMTDLSALC-OH; disulfide I:7-II:1, I:19-II:14) |
| 18.6 | 33.9 |  | CC[C@H](C)[C@@H]1NC(=O)[C@H](Cc2ccc(O)cc2)NC(=O)[C@H]([C@@H](C)CC)NC(=O)[C@H](C(C)C)NC(=O)[C@H]([C@@H](C)O)NC(=O)[C@H](CCCNC(=N)N)NC(=O)[C@H](C(C)C)NC(=O)[C@H](Cc2ccc(O)cc2)NC(=O)[C@H](CC(=O)O)NC(=O)[C@H](CC(C)C)NC(=O)CNC(=O)[C@@H](NC(=O)[C@H](CC(C)C)NC(=O)[C@H](CCCCN)NC(=O)[C@@H](NC(=O)[C@@H](NC(=O)[C@H](CCC(N)=O)NC(=O)[C@H](CCCNC(=N)N)NC(=O)[C@@H](N)CO)[C@@H](C)O)C(C)C)CSSC[C@H](N)C(=O)N[C@@H](CCCNC(=N)N)C(=O)N[C@@H](CCC(=O)O)C(=O)NCC(=O)N[C@@H](C)C(=O)N[C@@H](CO)C(=O)N[C@@H](CCSC)C(=O)N[C@@H](CCCCN)C(=O)N[C@@H](CCC(=O)O)C(=O)N[C@@H](CC(C)C)C(=O)N[C@@H](CO)C(=O)N[C@@H]([C@@H](C)O)C(=O)N[C@@H](CC(C)C)C(=O)N[C@H](C(=O)O)CSSC[C@@H](C(=O)N[C@@H](C)C(=O)N[C@@H](CO)C(=O)N[C@@H](CO)C(=O)N[C@@H](CCCNC(=N)N)C(=O)N[C@@H](Cc2c[nH]c3ccccc23)C(=O)O)NC1=O (I: H-SRQTVKLCGLDYVRTVIYICASSRW-OH / II: H-CREGASMKELSTLC-OH; disulfide I:8-II:1, I:20-II:14) |
